Assay results reported in US20170327779A1, “METHOD FOR PRODUCING CELL AGGREGATES” (Kaneka Corporation, priority 2015, published 2017).

Columns and labels:
Type in all cases: cell-based
human iPS cells [1] = assay: Effect of LPA or S1P on cell aggregation of human iPS cells in suspension culture, microscopic observation; conditions: for φ, width of the widest portion of cell aggregate (average±standard deviation): 1 day, 30 aggregates; for size of spherical cell aggregates: 0.2 μg/mL, BSA-ff 5 mg/mL, Y-27632 10 μM, 1 day suspension culture (FIG. 8)
Protocol: Human iPS cells that had been cultured using the protocol of Example 1 were treated with TrypLE Select, EDTA solution, or Accutase for 3 to 5 min and were detached. After dispersed as single cells, the cells were made to pass through a cell strainer with a pore size of 40 μm (Becton, Dickinson and Company) to monodisperse as single cells. The resulting cells were suspended in Essential 8™ medium containing a final concentration of 10 μM Y-27632 (Wako Pure Chemical Industries, Ltd.). A portion thereof was then stained with trypan blue and the number of cells was counted. Suspensions containing 2×10^5 cells per ml were prepared. To each cell suspension were added lipid-free bovine serum albumin (BSA-ff; CultureSure albumin, Wako Pure Chemical Industries, Ltd.) at a final concentration of 5 mg/mL and Y-27632 (Wako Pure Chemical Industries, Ltd.) at a final concentration of 10 μM. In addition, the following lipids were each added to the cell suspension and the cells were subjected to rotary shaking culture for 1 day under the same conditions as in Example 2 to culture human iPS cells in suspension. After one day of the suspension culture, the cells were observed under a microscope.
The lipids and additives used in this study are as follows: • LPA (Lysophosphatidic acid) (1-O-9Z-octadecenoyl-sn-glyceryl-3-phosphoric acid, a sodium salt, Cat. No. 62215, Cayman, Inc.; with an oleyl group at sn-1 position).
S1P (Sphingosine-1-phosphoric acid) (2S-amino-1-(dihydrogen phosphate)-4E-octadecene-1,3R-diol, Cat. No. 62570, Cayman, Inc.)
LPA at 0.2 μg/mL or S1P at 0.2 μg/mL was added to the human iPS cell suspension.
Human iPS cell suspensions were prepared using substantially the same protocol as in Example 5. LPA was added as a sodium salt at a concentration of 0.00128 μg/mL, 0.0064 μg/mL, 0.032 μg/mL, 0.16 μg/mL, 0.8 μg/mL, 4 μg/mL, 20 μg/mL, or 100 μg/mL. To each suspension were added BSA-ff at a final concentration of 5 mg/mL and Y-27632 (Wako Pure Chemical Industries, Ltd.) at a final concentration of 10 μM. The cells were cultured in suspension for 1 day under the same conditions as in Example 5 and then observed under a microscope.
Inspected were 30 cell aggregates on an observation image obtained when the concentration of LPA was from 0.16 to 100 μg/mL. While being compared using a micrograph scale, the width (referred to as “φ”) of the widest portion of each cell aggregate was measured to calculate an average±standard deviation.
Human iPS cell suspensions were prepared using substantially the same protocol as in Example […] was added as a free form at a concentration of 0.00128 μg/mL, 0.0064 μg/mL, 0.032 μg/mL, 0.16 μg/mL, 0.8 μg/mL, 4 μg/mL, 20 μg/mL, or 100 μg/mL. To each suspension were added BSA-ff at a final concentration of 5 mg/mL and Y-27632 (Wako Pure Chemical Industries, Ltd.) at a final concentration of 10 μM. The cells were cultured in suspension for 1 day under the same conditions as in Example 5 and then observed under a microscope.
Inspected were 30 cell aggregates on an observation image obtained when the concentration of S1P was from 0.032 to 100 μg/mL. While being compared using a micrograph scale, the width (referred to as “φ”) of the widest portion of each cell aggregate was measured to calculate an average±standard deviation. […]

human iPS cells [2] = assay: Glucose consumption and total cell count of human iPS cells cultured in suspension with LPA or S1P; conditions: 0.2 or 1 μg/mL, compared with BSA-ff alone; for number of cells (total cell count): Day 5, n=3 (FIG. 13); for glucose consumption: Days 2 to 5, n=3 (FIG. 12)
Protocol: Human iPS cell suspensions were prepared using substantially the same protocol as in Example 5. To each cell suspension were added LPA or S1P at a final concentration of 0.2 μg/mL or 1 μg/mL, and BSA-ff at a final concentration of 5 mg/mL and Y-27632 (Wako Pure Chemical Industries, Ltd.) at a final concentration of 10 μM. As a control, cell suspensions were prepared using the same protocol as in Example 5. That is, prepared were the cell suspensions solely containing BSA-ff at a final concentration of 5 mg/mL and Y-27632 at a final concentration of 10 μM.
The above cell suspensions were subjected to suspension culture for […] under the same conditions as in Example 5. At Day 2 of culture, the culture medium was changed every day with Essential 8™ culture medium supplemented with 5 mg/mL BSA-ff. At Days 2, 3, 4, and 5, the concentration of glucose in the culture supernatant was measured to calculate glucose consumption. In addition, at Day 5 of culture, cell aggregates were collected, dispersed using Accutase, and suspended in Essential 8™ culture medium supplemented with 5 mg/mL BSA-ff. A portion of each cell suspension was stained with trypan blue and the number of cells was counted. The above cell suspensions were centrifuged at 300 g for 5 min, the supernatant was then removed, and the cells were washed with PBS (phosphate buffered saline). Next, the cells were fixed with 4% PFA (paraformaldehyde) at room temperature for 20 min, then washed 3 times with PBS, and permeabilized with cold methanol at −20° C. overnight. After washed 3 times with PBS, the cells were blocked with 3% FBS (fetal calf serum)/PBS and stained using a fluorescently labeled anti-SOX2 antibody (Cat. No. 656110, Biolegend, Inc.) and a fluorescently labeled anti-OCT4 antibody (Cat. No. 653703, Biolegend, Inc.) at 4° C. for 1 h. After washed once with 3% FBS (fetal calf serum)/PBS, the cells were made to pass through a cell strainer. The resulting cells were analyzed on FACSVerse.
The following procedure was used to measure glucose consumption. Specifically, the culture supernatant was recovered at medium change and a bioanalyzer (Y512950), manufactured by YSI, Inc., was used to measure the remaining glucose amount. In this way, the glucose consumption was calculated.
A total cell count was measured at Day 5 of culture. The following procedure was used to measure the total cell count. Specifically, the cell aggregates that had been formed were treated with TrypLE Select for 5 to 10 min, pipetted using a blue tip to monodisperse as cells, and stained with trypan blue. After that, the number of cells was counted using a hemocytometer to determine the total cell count.

human iPS cells [3] = assay: Formation of aggregates of human iPS cells by rotary shaking suspension culture with KSR or its protein-based components; conditions: factor added instead of KSR; micrographs at Day 1 (FIG. 6)
Protocol: TkDN4-M cell line (Non-Patent Literature 1) was used as human iPS cells. The human iPS cells were seeded on cell culture dishes coated with Matrigel (Corning, Inc.) or Vitronectin (Life Technologies Japan Ltd.). A culture medium, which was mTeSR1 (STEMCELL Technologies, Inc.) or Essential 8™ (Life Technologies Japan Ltd.), was used for maintenance culture. As a cell detachment agent at the time of cell passage, TrypLE Select (Life Technologies Japan Ltd.) was used when the cells were cultured on Matrigel; and 0.02% EDTA (ethylene diamine tetraacetic acid) solution or Accutase (Life Technologies Japan Ltd.) was used when the cells were cultured on Vitronectin. In addition, when the cells were seeded, Y-27632 (Wako Pure Chemical Industries, Ltd.) at a concentration of 10 μM was added to a culture medium. The culture medium was changed every day. For experiments, human iPS cells (the number of passage was 50 or less) were used.
Human iPS cells were treated with TrypLE Select or EDTA solution for 3 to 5 min and were detached. After dispersed as single cells, the cells were made to pass through a cell strainer with a pore size of 40 μm (Becton, Dickinson and Company). […] A portion thereof was then stained with trypan blue and the number of cells was counted. […]

Compound | φ, width of the widest portion of cell aggregate (average±standard deviation) (human iPS cells [1]; 0.16 μg/mL) | size of spherical cell aggregates (human iPS cells [1]) | φ, width of the widest portion of cell aggregate (average±standard deviation) (human iPS cells [1]; 0.8 μg/mL) | φ, width of the widest portion of cell aggregate (average±standard deviation) (human iPS cells [1]; 4 μg/mL) | φ, width of the widest portion of cell aggregate (average±standard deviation) (human iPS cells [1]; 20 μg/mL) | φ, width of the widest portion of cell aggregate (average±standard deviation) (human iPS cells [1]; 100 μg/mL) | diameter of cell aggregates (human iPS cells [1]; LPA 0.032 μg/mL or less, 1 day (FIG. 9)) | formation of cell aggregates (human iPS cells [1]; LPA 0.16 to 100 μg/mL, 1 day (FIG. 9)) | number of cells (total cell count) (human iPS cells [2]) | glucose consumption (human iPS cells [2]) | diameter of cell aggregates (human iPS cells [1]; S1P 0.0064 μg/mL or less, 1 day (FIG. 10)) | formation of cell aggregates (human iPS cells [1]; S1P 0.032 to 100 μg/mL, 1 day (FIG. 10)) | formation of aggregates (human iPS cells [3])
1-O-9Z-octadecenoyl-sn-glyceryl-3-phosphoric acid, a sodium salt [LPA] | 124.9±26.5 μm | about 100 μm | 68.2±9.8 μm | 57.2±8.7 μm | 39.9±8.0 μm | 41.6±9.9 μm | ≥ 1 mm | cell aggregates with a substantially uniform size were formed | larger | larger |  |  | 
CCCCCCCCCCCCC/C=C/[C@@H](O)[C@@H](N)COP(=O)(O)O [S1P, 2S-amino-1-(dihydrogen phosphate)-4E-octadecene-1,3R-diol] | 142.4±16.4 μm | about 100 μm | 118.5±21.8 μm | 109.9±23.1 μm | 94.0±19.4 μm | 89.0±19.5 μm |  |  | larger | larger | ≥ 1 mm | cell aggregates with a substantially uniform size were formed | 
insulin: insulin (Sigma-Aldrich Co. LLC.), lipid-free protein-based component of KSR |  |  |  |  |  |  |  |  |  |  |  |  | large aggregates
transferrin: transferrin (Sigma-Aldrich Co. LLC.), lipid-free protein-based component of KSR |  |  |  |  |  |  |  |  |  |  |  |  | large aggregates
